Literature values in patent US20170273925A1 (Cumberland Pharmaceuticals Inc., priority 2014, published 2017).

Solubility in water: very poorly soluble in water
SMILES: CC(C)Cc1ccc(C(C)C(=O)O)cc1 (stereo not shown) [ibuprofen, 2-(4-isobutylphenyl) propionic acid]
